Measured values reported in patent US8017649B2, “Flavonoid compounds and uses thereof” (Howard Florey Institute of Experimental Physiology and …, priority 2005, dated 2011).
Entries after “also recorded” stand apart in the source; their conditions may differ.

What was measured:
[1] = system: superoxide anions generated in rat aorta; assay: Superoxide anion production in rat isolated aortic segments (lucigenin chemiluminescence, NADPH); type: cell-based; settings: for superoxide levels: highest concentration tested (0.1 mM)
Experimental: Superoxide anion production in rat isolated aortic segments was determined using lucigenin chemiluminescence. Aortic rings were prepared as described above and then placed in ice-cold Krebs-(N-[2-Hydroxyethyl]piperazine-N′-[2-ethanesulfonic acid] (HEPES buffer) (composition (mM); NaCl 99.0, KCl 4.7, KH2PO4 1.0, MgSO4·7H2O 1.2, D-glucose 11.0, NaHCO3 25.0, CaCl2·2H2O 2.5, Na-HEPES 20.0). Aortic rings were pre-incubated for 45 minutes at 37° C. with a pH 7.4, in Krebs-HEPES buffer containing diethylthiocarbamic acid (DETCA, 10^−3 M) to inactivate superoxide dismutase and β-nicotinamide adenine dinucleotide phosphate (NADPH, 10^−4 M) as a substrate for NADPH oxidase and either 3′,4′-dihydroxyflavonol (10^−4 M) as a positive control, vehicle, 3-hydroxyflavone-3-hemiadipate, 3′,4′-dihydroxy-3-hemiadipate, 3-hydroxyflavone-3-phosphate (10^−8-10^−4 M). Background photon emission was measured for 12 cycles in a 96-well Optiplate containing 0.3 ml per well of Krebs-HEPES buffer together with lucigenin (5×10^−5 M) and vehicle or flavonoid (10^−8-10^−4 M). Each cycle was counted every one minute. After background reading was completed the incubated aortic rings were transferred to the appropriate wells and photon emission was recounted as described above. The tissue was then placed in a 65° C. oven for 48 hours to allow superoxide production to be normalised to dry tissue weight.
The effects of vehicle, 3′,4′-dihydroxyflavone-3-hemiadipate (21) (DiOHF3HA, 10^−8 M-10^−4 M) and DiOHF (10^−4 M) in the presence and absence of Butyryl cholinesterase (BuCHE), 100, 300 and 1000 U/L) on the level of superoxide anions generated in rat isolated aortic segments in the presence of NADPH was expressed as a percentage of control. The method used was as described above except for the addition of the butyryl cholinesterase.
The effect of vehicle, 3-hydroxyflavone-3-phosphate (10^−8 to 10^−4 M) in the presence or absence of phosphatase (1000 U/L) on the level of superoxide anions generated in rat aorta in the presence of NADPH expressed as a percentage of control was determined as described above for the 3′,4′-dihydroxyflavone-3-hemiadipate.

[2] = system: rat aorta precontracted with PE; assay: Direct relaxation of PE/U46619-precontracted rat aortic rings; type: cell-based; settings: substance alone
Experimental: Following testing of endothelial integrity, rings were repeatedly washed and re-equilibrated for 30 minutes before the addition of PE (10^−8−2×10^−7 M) and 9,11-dideoxy-9α, 11α-epoxymethano-prostaglandin F2α (U46619, 10^−9-10^−8 M) to produce an active force in the range of 40-60% of KPSS-induced contraction. The level of precontraction was matched between the various groups by adjusting the concentrations of PE and U46619. Cumulative concentration-response curves in the range 10^−8-10^−4 M were conducted for 3′,4′-dihydroxyflavonol, 3-hydroxyflavone-3-hemiadipate, 3′,4′-dihydroxy-3-hemiadipate, 3-hydroxyflavone-3-phosphate.
Experiments were conducted in the presence of an esterase, butyryl cholinesterase (BuCHE, 1000 U/L) for the hemiadipate derivates and a phosphatase 1000 U/L) in the case of the phosphate derivatives.
Following testing of endothelial integrity, rings were repeatedly washed and re-equilibrated for 30 minutes before the addition of PE (10^−8−2×10^−7 M) and 9,11-dideoxy-9α, 11α-epoxymethano-prostaglandin F2α (U46619, 10^−9-10^−7 M) to produce an active force in the range of 40-60% of KPSS-induced contraction. Cumulative concentration-response curves in the range 10^−7-10^−4 M were conducted for vehicle, 3′-hydroxyflavonol, F3HA, DiOHF3HA, F3P. Experiments were conducted in the presence and absence of 1000 U/L BuCHE to cleave the adipate in F3HA and DiOHF3HA. In experiments using F3P 1000 U/L phosphatase was used in some experiments to cleave the phosphate.

[3] = system: endothelium intact aortic rings; assay: Ca2+-induced contraction of rat aortic rings in Ca2+-free high-K+ solution; type: cell-based
Experimental: To determine the effect of flavonoids on responses to the influx of extracellular Ca^2+, contractile responses to exogenous application of Ca^2+ were examined in the presence of flavonoids in Ca^2+-free high-K^+ solution (60 mM, KPSS). Aortic rings were initially equilibrated at a resting tension of 1 g in normal Ca^2+-free PSS for 45 minutes. The bath medium was then replaced with Ca^2+-free KPSS for 45 minutes to determine a reference contraction to Ca^2+ (3×10^−3 M). Following a 30 minute re-equilibration period with Ca^2+-free PSS, the cumulative contractile responses to Ca^2+ (10^−5−3×10^−3 M) were determined in KPSS in the presence of a range of concentrations (10^−8-10^−4 M) of vehicle, 3′,4′-dihydroxyflavonol, 3-hydroxyflavone-3-hemiadipate, 3′,4′-dihydroxy-3-hemiadipate, 3-hydroxyflavone-3-phosphate. A 20 minute incubation period was allowed for the flavonoids before examining the responses to Ca^2+.
To determine the effect of flavonoids on responses to the influx of extracellular Ca^2+, contractile responses to exogenous application of Ca^2+ were examined in the presence of flavonoids in Ca^2+-free high-K^+ solution (60 mM, K+-PSS). Aortic rings were initially equilibrated at a resting tension of 1 g in Ca^2+-free PSS for 45 minutes. The bath medium was then replaced with Ca^2+-free K+-PSS for 45 minutes to determine a reference contraction to added Ca^2+ (3 mM). Following a 30 minute re-equilibration period with Ca^2+-free PSS, the cumulative contractile responses to Ca^2+ (10^−5−3×10^−3 M) were determined in K^+ PSS in the presence of vehicle (0.1% DMSO), or a range of concentrations (10^−7-10^−4 M) of 3′-hydroxyflavonol, F3HA, DiOHF3HA or F3P. A 20 minute incubation period was allowed for the flavonoids before examining the responses to Ca^2+. Experiments were conducted in the presence and absence of BuCHE (1000 U/L) to cleave the adipate in F3HA and DiOHF3HA. In experiments using F3P, phosphatase (1000 U/L) was used in some experiments to cleave the phosphate.

anaesthetised rats = assay: Arterial pressure and heart rate in anaesthetised rats after intravenous injection; type: in vivo, rat; settings: intravenous, anaesthetised rats
Experimental: A unit dosage of an aqueous solution of 3-hydroxyflavone-3-hemiadipate (15) was administered to a group of male anesthetized Sprague Dawley rats intravenously and the blood pressure monitored over a period of time.
Male Sprague-Dawley rats (250-350 g) were anaesthetised with pentobarbitone sodium (60 mg kg^−1, ip). The trachea was isolated and cannulated with polyethylene tracheal tube (I.D. 2.0 mm), and the rat was allowed to breathe spontaneously.
The right carotid artery was cannulated and connected with a heparinised saline filled cannula (O.D. 0.75, I.D, 0.58 mm) and connected to a pressure transducer. Mean and phasic arterial pressure were continuously measured and recorded on a polygraph. The heart rate, was derived from the phasic arterial pressure using a tachometer.
DiOHF3HA ([…]) was injected intravenously, allowing at least 30 min between injections, and the peak changes in mean arterial pressure and heart rate measured. […] In a separate group of experiments ACh (0.3 mg/kg iv) and phenylephrine (PE, […]) were injected before and 30 minutes after DiOHF3HA (3 mg/kg iv), a time when arterial pressure and heart rate had returned to control levels. […]

[4] = system: endothelium intact aortic rings; assay: Effect on ACh relaxation of precontracted rat aortic rings; type: cell-based; settings: substance alone
Experimental: (§1) After wash out and re-equilibration for 30 min, the aortic rings were then submaximally precontracted with PE and U46619, which were used to produce an active tension of 45-60% of the KPSS-induced maximum contraction. When investigating the effects of the flavonoids, flavonol, flavone-3-hemiadipate (F3HA), 3′, 4′-dihydroxyflavone, 3′,4′-dihydroxyflavonol, 3′,4′-dihydroxyflavone-3-hemiadipate (DiOHF3HA), and flavone-3-phosphate (F3P) on vasorelaxant responses, rings were incubated with one of the compounds for 20 mins before they were precontracted submaximally, followed by a cumulative-concentration response curve to ACh (100 nM-10 μM) or SNP ([…]). In experiments using F3P 1000U/L phosphatase was used in some experiments to cleave the phosphate. Some experiments were conducted in the presence and absence of butyryl cholinesterase (BuCHE, 1000 U/L) to cleave the adipate in DiOHF3HA and F3HA.

aortic rings = assay: Effect on SNP relaxation of precontracted rat aortic rings; type: cell-based; settings: substance alone
Experimental: as §1

[5] = substance alone, no added esterase/phosphatase, up to 10^−4 M, NADPH

O=c1cc(-c2ccc(O)c(O)c2)oc2ccccc12 [DiOHFne, 3′,4′-dihydroxyflavone, reference compound]
superoxide levels [1]: 36±3 % of control | effect on superoxide generation [1, 5]: concentration dependent decreases in superoxide levels | direct relaxing effect on precontracted vessels [2]: concentration-dependent relaxation of rat aorta which was weaker than the effect of DiOHF

O=C(O)CCCCC(=O)Oc1c(-c2ccccc2)oc2ccccc2c1=O [F3HA, Flavone-3-hemiadipate]
effect on Ca^2+-induced contraction ([3]; alone, highest concentration 10^−4 M): only inhibited contractile responses to increasing concentrations of extracellular calcium at the highest concentration tested | effect on Ca^2+-induced contraction ([3]; alone, highest concentration 10^−4 M, listed as flavone-3-hemiadipate): some inhibitory effect | effect on Ca^2+-induced contraction ([3]; alone, lower concentrations 10^−8 to 10^−5 M): did not effect Ca^2+ contraction | effect on Ca^2+-induced contraction ([3]; in the presence of BuCHE or phosphatase (1000 U/L)): inhibit calcium-induced contraction | effect on superoxide generation ([1]; in the presence of cleaving enzyme (BuCHE for hemiadipates, phosphatase for phosphate, 1000 U/L)): concentration dependent increase in the inhibitory effect | effect on superoxide generation ([1]; in the presence of cleaving enzyme (BuCHE for hemiadipates, phosphatase for phosphate, 1000 U/L), listed as flavone-3-hemiadipate): concentration-dependent inhibitory effect | effect on superoxide generation [1, 5]: no inhibitory effect on superoxide generation; also recorded: no antioxidant or vascular activity | effect on superoxide generation ([1]; substance alone, no added esterase/phosphatase, up to 10^−4 M, NADPH, listed as Flavone-3-hemiadipate): no effect on the superoxide production | effect on superoxide generation ([1]; substance alone, no added esterase/phosphatase, up to 10^−4 M, NADPH, listed as flavone-3-hemiadipate): no effect on the superoxide production at any concentration | change in mean arterial pressure (MAP) (anaesthetised rats): significant reduction in the blood pressure

O=c1c(O)c(-c2ccccc2)oc2ccccc12 [Flavonol, reference compound]
effect on Ca^2+-induced contraction ([3]; alone, over the concentration range tested): concentration dependent decreases in calcium-induced contraction | effect on relaxant response to ACh [4]: did not affect | superoxide levels [1]: 36±3 % of control | effect on superoxide generation [1, 5]: concentration dependent decreases in superoxide levels | effect on relaxant response to SNP (aortic rings): did not affect

B1: BuCHE: butyryl cholinesterase, esterase used to cleave the adipate (protein, UniProt P06276 29-602, looked up)
Cholinesterase: EDDIIIATKNGKVRGMNLTVFGGTVTAFLGIPYAQPPLGRLRFKKPQSLTKWSDIWNATKYANSCCQNIDQSFPGFHGSEMWNPNTDLSEDCLYLNVWIPAPKPKNATVLIWIYGGGFQTGTSSLHVYDGKFLARVERVIVVSMNYRVGALGFLALPGNPEAPGNMGLFDQQLALQWVQKNIAAFGGNPKSVTLFGESAGAASVSLHLLSPGSHSLFTRAILQSGSFNAPWAVTSLYEARNRTLNLAKLTGCSRENETEIIKCLRNKDPQEILLNEAFVVPYGTPLSVNFGPTVDGDFLTDMPDILLELGQFKKTQILVGVNKDEGTAFLVYGAPGFSKDNNSIITRKEFQEGLKIFFPGVSEFGKESILFHYTDWVDDQRPENYREALGDVVGDYNFICPALEFTKKFSEWGNNAFFYYFEHRSSKLPWPEWMGVMHGYEIEFVFGLPLERRDNYTKAEEILSRSIVKRWANFAKYGNPNETQNNSTSWPVFKSTEQKYLTLNTESTRIMTKLRAQQCRFWTSFFPKVLEMTGNIDEAEWEWKAGFHRWNNYMMDWKNQFNDYTSKKESCVGL
direct relaxing effect on precontracted vessels [2]: no effect on PE precontracted vessels
